The values below are quoted from earlier work in patent US20200206223A1, “LIQUID DOSAGE FORMS OF IMATINIB” (FTF PHARMA PRIVATE LIMITED, priority 2017, published 2020).

`Cc1ccc(NC(=O)c2ccc(CN3CCNCC3)cc2)cc1Nc1nccc(-c2cccnc2)n1` [N-desmethyl derivative]: the “Share of the AUC for Imatinib mesylate” value (main circulating active metabolite) is on record as “about 15%”. Besides, for the setting “orally administered imatinib mesylate”, the Elimination half-life is around 40 h.
